Measurements taken from ChEMBL document CHEMBL4229381, “New cytokinin derivatives possess UVA and UVB photoprotective effect on human skin cells and prevent oxidative stress” (Eur J Med Chem, 2018).
Calls of active or inactive are those of the source. No cut-off for these calls is given here.

Key:
Nicotiana tabacum = test: Growth promoting activity in tobacco callus assessed as callus weight at 10^-5 mol/L after 4 weeks relative to control; type: functional
Amaranthus caudatus = test: Growth promoting activity in Amaranthus caudatus var. atropurpurea seeds by measuring betacyanin at 10^-4 mol/L after 48 hrs relative to control; type: functional
Triticum aestivum = test: Anti-senescent activity in leaf of Triticum aestivum cv. Hereward seedlings by measuring chlorophyll retention at 10^-4 mol/L after 4 days relative to control; type: functional
HaCaT [1] = test: Cytotoxicity in human HaCaT cells assessed as reduction in cell viability at 50 uM after 24 hrs by resazurin dye-based fluorescence assay relative to control
BJ = test: Cytotoxicity in human BJ cells assessed as reduction in cell viability at 50 uM after 24 hrs by resazurin dye-based fluorescence assay relative to control
[2] = Cytotoxicity in human NHDF cells assessed as cell viability at 3.9 uM after 24 hrs by neutral red uptake assay relative to control; type: cell-based; conditions: read-out: Activity
[3] = Cytotoxicity in human NHDF cells assessed as cell viability at 7.8 uM after 24 hrs by neutral red uptake assay relative to control; type: cell-based; conditions: read-out: Activity
[4] = Cytotoxicity in human NHDF cells assessed as cell viability at 15.6 uM after 24 hrs by neutral red uptake assay relative to control; type: cell-based; conditions: read-out: Activity
[5] = Cytotoxicity in human NHDF cells assessed as cell viability at 31.3 uM after 24 hrs by neutral red uptake assay relative to control; type: cell-based; conditions: read-out: Activity
[6] = Cytotoxicity in human NHDF cells assessed as cell viability at 62.5 uM after 24 hrs by neutral red uptake assay relative to control; type: cell-based; conditions: read-out: Activity
[7] = Cytotoxicity in human NHDF cells assessed as cell viability at 125 uM after 24 hrs by neutral red uptake assay relative to control; type: cell-based; conditions: read-out: Activity
[8] = Phototoxicity in human NHDF cells assessed as cell viability at 3.9 uM preincubated for 60 mins followed by 5 J/cm2 UVA irradiation and measured after 24 hrs by neutral red uptake assay relative to control; type: cell-based; conditions: read-out: Activity
[9] = Phototoxicity in human NHDF cells assessed as cell viability at 7.8 uM preincubated for 60 mins followed by 5 J/cm2 UVA irradiation and measured after 24 hrs by neutral red uptake assay relative to control; type: cell-based; conditions: read-out: Activity
[10] = Phototoxicity in human NHDF cells assessed as cell viability at 15.6 uM preincubated for 60 mins followed by 5 J/cm2 UVA irradiation and measured after 24 hrs by neutral red uptake assay relative to control; type: cell-based; conditions: read-out: Activity
[11] = Phototoxicity in human NHDF cells assessed as cell viability at 31.3 uM preincubated for 60 mins followed by 5 J/cm2 UVA irradiation and measured after 24 hrs by neutral red uptake assay relative to control; type: cell-based; conditions: read-out: Activity
[12] = Phototoxicity in human NHDF cells assessed as cell viability at 62.5 uM preincubated for 60 mins followed by 5 J/cm2 UVA irradiation and measured after 24 hrs by neutral red uptake assay relative to control; type: cell-based; conditions: read-out: Activity
[13] = Phototoxicity in human NHDF cells assessed as cell viability at 125 uM preincubated for 60 mins followed by 5 J/cm2 UVA irradiation and measured after 24 hrs by neutral red uptake assay relative to control; type: cell-based; conditions: read-out: Activity
[14] = Cytotoxicity in human HaCaT cells assessed as cell viability at 3.9 uM after 24 hrs by neutral red uptake assay relative to control; type: cell-based; conditions: read-out: Activity
[15] = Cytotoxicity in human HaCaT cells assessed as cell viability at 7.8 uM after 24 hrs by neutral red uptake assay relative to control; type: cell-based; conditions: read-out: Activity
[16] = Cytotoxicity in human HaCaT cells assessed as cell viability at 15.6 uM after 24 hrs by neutral red uptake assay relative to control; type: cell-based; conditions: read-out: Activity
[17] = Cytotoxicity in human HaCaT cells assessed as cell viability at 31.3 uM after 24 hrs by neutral red uptake assay relative to control; type: cell-based; conditions: read-out: Activity
[18] = Cytotoxicity in human HaCaT cells assessed as cell viability at 62.5 uM after 24 hrs by neutral red uptake assay relative to control; type: cell-based; conditions: read-out: Activity
[19] = Cytotoxicity in human HaCaT cells assessed as cell viability at 125 uM after 24 hrs by neutral red uptake assay relative to control; type: cell-based; conditions: read-out: Activity
[20] = Phototoxicity in human HaCaT cells assessed as cell viability at 3.9 uM preincubated for 60 mins followed by 7.5 J/cm2 UVA irradiation and measured after 24 hrs by neutral red uptake assay relative to control; type: cell-based; conditions: read-out: Activity
[21] = Phototoxicity in human HaCaT cells assessed as cell viability at 7.8 uM preincubated for 60 mins followed by 7.5 J/cm2 UVA irradiation and measured after 24 hrs by neutral red uptake assay relative to control; type: cell-based; conditions: read-out: Activity
[22] = Phototoxicity in human HaCaT cells assessed as cell viability at 15.6 uM preincubated for 60 mins followed by 7.5 J/cm2 UVA irradiation and measured after 24 hrs by neutral red uptake assay relative to control; type: cell-based; conditions: read-out: Activity
[23] = Phototoxicity in human HaCaT cells assessed as cell viability at 31.3 uM preincubated for 60 mins followed by 7.5 J/cm2 UVA irradiation and measured after 24 hrs by neutral red uptake assay relative to control; type: cell-based; conditions: read-out: Activity
[24] = Phototoxicity in human HaCaT cells assessed as cell viability at 62.5 uM preincubated for 60 mins followed by 7.5 J/cm2 UVA irradiation and measured after 24 hrs by neutral red uptake assay relative to control; type: cell-based; conditions: read-out: Activity
[25] = Phototoxicity in human HaCaT cells assessed as cell viability at 125 uM preincubated for 60 mins followed by 7.5 J/cm2 UVA irradiation and measured after 24 hrs by neutral red uptake assay relative to control; type: cell-based; conditions: read-out: Activity
HaCaT [26] = test: Cytoprotection against phototoxicity in human HaCaT cells assessed as increase in cell viability at 3.9 uM preincubated for 60 mins followed by 10 J/cm2 UVA irradiation and measured after 24 hrs by neutral red uptake assay; type: functional, cell-based
[27] = Antioxidant activity assessed as trolox equivalent of AAPH-induced radical scavenging activity at 1 uM pretreated for 15 mins followed by […] challenge measured every 3 mins over 90 mins by ORAC-FL assay; type: functional
[28] = Stability of the compound in pH 6 solution at 10^-4 M after 1 hr by HPLC analysis; type: physicochemical; conditions: read-out: Stability
[29] = Stability of the compound in pH 5 solution at 10^-4 M after 1 hr by HPLC analysis; type: physicochemical; conditions: read-out: Stability
[30] = Stability of the compound in pH 4 solution at 10^-4 M after 1 hr by HPLC analysis; type: physicochemical; conditions: read-out: Stability
[31] = Stability of the compound in pH 3 solution at 10^-4 M after 1 hr by HPLC analysis; type: physicochemical; conditions: read-out: Stability
[32] = Stability of the compound in pH 6 solution at 10^-4 M after 24 hrs by HPLC analysis; type: physicochemical; conditions: read-out: Stability
[33] = Stability of the compound in pH 5 solution at 10^-4 M after 24 hrs by HPLC analysis; type: physicochemical; conditions: read-out: Stability
[34] = Stability of the compound in pH 4 solution at 10^-4 M after 24 hrs by HPLC analysis; type: physicochemical; conditions: read-out: Stability
[35] = Stability of the compound in pH 3 solution at 10^-4 M after 24 hrs by HPLC analysis; type: physicochemical; conditions: read-out: Stability
Caenorhabditis elegans [36] = test: Protection against juglone-induced oxidative stress in wild type Caenorhabditis elegans N2 at 100 uM preincubated for 3 days followed by juglone addition and measured after 4 hrs by inverted microscopic analysis; type: functional, organism-based
Caenorhabditis elegans [37] = test: Protection against juglone-induced oxidative stress in Caenorhabditis elegans BA17 (fem-1) at 100 uM preincubated for 3 days followed by juglone addition measured every hour for 12 ro 14 hrs by inverted microscopic analysis; type: functional, organism-based

## c1nc(NCC2CCCC2)c2nc[nH]c2n1
Nicotiana tabacum
  Activity: 100%
Amaranthus caudatus
  Activity: 97%
Triticum aestivum
  Activity: 71%

## c1csc(CCNc2ncnc3[nH]cnc23)c1
Nicotiana tabacum
  Activity: 77%
Amaranthus caudatus
  Activity: 80%
Triticum aestivum
  Activity: inactive

## c1ccc(CNc2ncnc3[nH]cnc23)cc1 [6-BENZYLAMINOPURINE]
Nicotiana tabacum
  Activity: 20%

## OCc1ccc(CNc2ncnc3c2ncn3C2CCCO2)o1 (stereo unspecified)
HaCaT [1]
  Activity: < 10%
BJ
  Activity: < 10%
[2]
  viability at 24 h, 3.9 µM: 103%
[3]
  viability at 24 h, 7.8 µM: 105%
[4]
  viability at 24 h, 15.6 µM: 104%
[5]
  viability at 24 h, 31.3 µM: 108%
[6]
  viability at 24 h, 62.5 µM: 107%
[7]
  viability at 24 h, 125 µM: 110%
[8]
  viability at 24 h, 3.9 µM: 101%
[9]
  viability at 24 h, 7.8 µM: 107%
[10]
  viability at 24 h, 15.6 µM: 102%
[11]
  viability at 24 h, 31.3 µM: 107%
[12]
  viability at 24 h, 62.5 µM: 111%
[13]
  viability at 24 h, 125 µM: 112%
[14]
  viability at 24 h, 3.9 µM: 100%
[15]
  viability at 24 h, 7.8 µM: 100%
[16]
  viability at 24 h, 15.6 µM: 102%
[17]
  viability at 24 h, 31.3 µM: 108%
[18]
  viability at 24 h, 62.5 µM: 106%
[19]
  viability at 24 h, 125 µM: 110%
[20]
  viability at 24 h, 3.9 µM: 104%
[21]
  viability at 24 h, 7.8 µM: 111%
[22]
  viability at 24 h, 15.6 µM: 108%
[23]
  viability at 24 h, 31.3 µM: 118%
[24]
  viability at 24 h, 62.5 µM: 121%
[25]
  viability at 24 h, 125 µM: 125%
HaCaT [26]
  Activity: Active
[27]
  Activity: 0.77 equiv
Nicotiana tabacum
  Activity: 103%
Triticum aestivum
  Activity: 75%

## Clc1nc(NCc2cccs2)c2ncn(C3CCCO3)c2n1 (stereo unspecified)
Nicotiana tabacum
  Activity: 108%
Amaranthus caudatus
  Activity: 101%
Triticum aestivum
  Activity: inactive

## Clc1nc(NCc2ccco2)c2ncn(C3CCCO3)c2n1 (stereo unspecified)
HaCaT [1]
  Activity: < 10%
[28]
  remaining at 1 h, 100 µM: 100%
[29]
  remaining at 1 h, 100 µM: 100%
[30]
  remaining at 1 h, 100 µM: 100%
[31]
  remaining at 1 h, 100 µM: 98.8%
[32]
  remaining at 24 h, 100 µM: 100%
[33]
  remaining at 24 h, 100 µM: 92.9%
[34]
  remaining at 24 h, 100 µM: 51.7%
[35]
  remaining at 24 h, 100 µM: 0.9%
BJ
  Activity: < 10%
[2]
  viability at 24 h, 3.9 µM: 100%
[3]
  viability at 24 h, 7.8 µM: 104%
[4]
  viability at 24 h, 15.6 µM: 104%
[5]
  viability at 24 h, 31.3 µM: 105%
[6]
  viability at 24 h, 62.5 µM: 106%
[7]
  viability at 24 h, 125 µM: 101%
[8]
  viability at 24 h, 3.9 µM: 100%
[9]
  viability at 24 h, 7.8 µM: 102%
[10]
  viability at 24 h, 15.6 µM: 103%
[11]
  viability at 24 h, 31.3 µM: 103%
[12]
  viability at 24 h, 62.5 µM: 103%
[13]
  viability at 24 h, 125 µM: 97%
[14]
  viability at 24 h, 3.9 µM: 107%
[15]
  viability at 24 h, 7.8 µM: 107%
[16]
  viability at 24 h, 15.6 µM: 109%
[17]
  viability at 24 h, 31.3 µM: 109%
[18]
  viability at 24 h, 62.5 µM: 110%
[19]
  viability at 24 h, 125 µM: 105%
[20]
  viability at 24 h, 3.9 µM: 116%
[21]
  viability at 24 h, 7.8 µM: 120%
[22]
  viability at 24 h, 15.6 µM: 120%
[23]
  viability at 24 h, 31.3 µM: 119%
[24]
  viability at 24 h, 62.5 µM: 116%
[25]
  viability at 24 h, 125 µM: 104%
HaCaT [26]
  Activity: Active
[27]
  Activity: < 0.05 equiv
Nicotiana tabacum
  Activity: 112%
Amaranthus caudatus
  Activity: 88%
Triticum aestivum
  Activity: 75%
Caenorhabditis elegans [36]
  Activity: Active
Caenorhabditis elegans [37]
  Activity: Active
